Measured values published in US20210322508A1, “PEPTIDES AND COMPOSITIONS FOR TARGETED TREATMENT AND IMAGING” (SIGNABLOK, INC., priority 2018, published 2021).
Residues, ends and D or L forms follow the SMILES beside them.

Assays:
[1] = test system: LPS-stimulated macrophages; experiment: cytokine production by LPS-stimulated macrophages; format: cell-based, murine; conditions: 24 h at 37° C.; for cytokine release by LPS-stimulated macrophages in the presence of HDL: with HDL
Procedure: FIG. 33 presents exemplary data showing cytokine production by LPS-stimulated macrophages incubated for 24 h at 37° C. with GF9, G-TE21, G-HV21 and G-KV21 in the presence of HDL.

healthy C57BL/6 mice = experiment: Mouse tolerability studies; format: in vivo; conditions: free form, i.p., healthy mice
Procedure: Naïve, female C57BL/6 mice at 8 to 10 weeks of age (18 to 21 g) from the Jackson Laboratory were used. […] Clinical observations and body weights were made twice daily.
Naïve, female C57BL/6 mice at 8 to 10 weeks of age (18 to 21 g) from the Jackson Laboratory were used. Animals were randomly grouped (5 mice per group) and i.p. injected with 400 mg/kg G-HV21, G-KV21 or G-TE21. Clinical observations and body weights were made twice daily.

[2] = test system: human pancreatic cancer xenografts (cancer mice); conditions: mouse, in vivo
Procedure: Treatment persisted for 31, 29 and 29 days for mice containing AsPC-1, BxPC-3 and Capan-1 tumor xenografts, respectively. Mean tumor volumes are calculated and plotted. All results are expressed as the mean±SEM (n=6 mice per group). On the final day of treatment, tumor volumes were compared between the drug-treated and control groups. **, p<0.01; ***, p<0.001; ****, p<0.0001 (versus vehicle).

[3] = Crossing of blood-retinal and blood-brain barrier (rho B-labeled); conditions: mouse, in vivo
Procedure: Litters of C57BL/6J (Jackson Laboratory, Bar Harbor, Me.) neonatal mice and nursing dams were exposed to a hyperoxia environment (75% oxygen) from postnatal day 7 (P7) to P12 and returned to normoxia until P17. The hyperoxia exposure causes degeneration of the immature retinal vessels. […] Beginning on P7, mice were treated until day P17 by daily i.p. injections of GF9, GF9-SLP, TREM-1/TRIOPEP-sSLP or vehicle (phosphate-buffered saline, pH 7.4; PBS). […] In another subset of experiments, rho B-labeled Gd-containing sSLP were used to confirm the ability of these targeted SLP to cross the BRB in other species (rats and rabbits). In another subset of experiments, neonatal mice and nursing dams were not subjected to a hyperoxia environment and reared in room air (RA). At P17, all mice were humanely sacrificed and their retinas were collected.
Litters of C57BL/6J (Jackson Laboratory, Bar Harbor, Me.) neonatal mice and nursing dams were exposed to a hyperoxia environment (75% oxygen) from postnatal day 7 (P7) to P12 and returned to normoxia until P17. The hyperoxia exposure causes degeneration of the immature retinal vessels. […] Beginning on P7, mice were treated until day P17 by daily i.p. injections of G-KV21, G-TE21 at indicated doses or vehicle (PBS, pH 7.4). In certain embodiments, neonatal mice and nursing dams were not subjected to a hyperoxia environment and reared in room air. […]

TREM-1 [4] = molecular target: T1, TREM-1 (Mus musculus, UniProt Q9JKE2); experiment: Immunofluorescence colocalization with TREM-1 in the cell membrane; format: cell-based; conditions: J774A.1; 6 h; Dylight 488-labeled, pre-incubated with HDL
T1 construct: endogenous in cells; host or cells: BALB/c murine macrophage cell line J774A.1 (ATCC)
Procedure: BALB/c murine macrophage J774A.1 cells were obtained from ATCC (Manassas, Va.) and cultured according to manufacturer's instructions at 37° C. in 6-well tissue culture plates containing glass coverslips until reaching about 50% confluency. Then, cells were incubated for 6 h at 37° C. either with rho B-labeled GF9-SLP that contained Dylight labeled GF9 or TREM-1/TRIOPEP-sSLP that contained Dylight 488-labeled GE31. In colocalization experiments, TREM-1 staining was performed using an Alexa 647-labeled rat anti-mouse TREM-1 antibody (Bio-Rad, Hercules, Calif.) as described in Shen and Sigalov. J Cell Mol Med 2017, 21:2524-2534. Coverslips were mounted using Prolong Gold anti-fade DAPI (4′,6-diamidino-2-phenylindole) mounting medium and photographed using an Olympus BX60 fluorescence microscope. Confocal imaging was performed using a Leica TCS SP5 II laser scanning confocal microscope as described in Shen and Sigalov. J Cell Mol Med 2017, 21:2524-2534.
BALB/c murine macrophage J774A.1 cells were grown at 37° C. in six-well tissue culture plates containing glass coverslips. […] ProLong Gold Antifade DAPI (4′,6′-diamidino-2-phenylindole) mounting medium was used to mount coverslips, and the slides were photographed using an Olympus BX60 fluorescence microscope. […]

TREM-1 [5] = molecular target: T1, TREM-1; experiment: colocalization of labeled peptide with TREM-1 in the cell membrane (images); format: cell-based; conditions: GE31 delivered to macrophages by SLP, G-KV21 pre-incubated with HDL, J774 cells
[6] = test system: human pancreatic cancer PANC-1 xenograft; experiment: PANC-1 xenograft mouse model, standalone and with GEM+ABX chemotherapy; format: in vivo
Procedure: Mice were implanted subcutaneously into the right flank with PANC-1 cells in equal parts of serum-free growth medium and Matrigel. Mice were monitored daily and tumor measurements were taken along the length and width using Vernier calipers twice weekly until sacrifice. Tumor volumes were calculated using a modified ellipsoidal formula: (Length×Width^2)/2. […] Body weight were measured. Mean tumor volumes were calculated. […] Survival was evaluated using Kaplan-Meier survival curves.

T1 sequence (O54885 22-114 partner): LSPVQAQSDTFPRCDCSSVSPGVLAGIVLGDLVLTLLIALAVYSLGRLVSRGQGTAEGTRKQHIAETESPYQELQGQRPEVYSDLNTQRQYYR
T1 sequence (Q9JKE2 21-230): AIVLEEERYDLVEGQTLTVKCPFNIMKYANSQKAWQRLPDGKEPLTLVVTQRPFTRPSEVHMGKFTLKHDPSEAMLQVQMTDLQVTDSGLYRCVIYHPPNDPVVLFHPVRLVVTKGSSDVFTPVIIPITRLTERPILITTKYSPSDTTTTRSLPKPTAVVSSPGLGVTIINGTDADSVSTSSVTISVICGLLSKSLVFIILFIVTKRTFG

SMILES	cytokine release by LPS-stimulated macrophages in the presence of HDL [1]	cytokine production by LPS-stimulated macrophages in the absence of HDL ([1]; without HDL)	dose at which non-toxic and well tolerated (healthy C57BL/6 mice)	tolerability in cancer mice [2]	passage of blood-retinal barrier (BRB) and blood-brain barrier (BBB) [3]	self-insertion into the cell membrane and colocalization with TREM-1 (TREM-1 [4])	colocalization with TREM-1 in the cell membrane (TREM-1 [5])	survival, combined with GEM+ABX chemotherapy [6]	tumor growth, combined with GEM+ABX chemotherapy ([6]; GEM+ABX days 1, 4, 8, 11, 15)
CC(C)C[C@H](NC(=O)[C@H](Cc1ccccc1)NC(=O)CN)C(=O)N[C@@H](CO)C(=O)N[C@@H](CCCCN)C(=O)N[C@@H](CO)C(=O)N[C@@H](CC(C)C)C(=O)N[C@H](C(=O)N[C@@H](Cc1ccccc1)C(=O)NCC(=O)N[C@@H](CCC(=O)O)C(=O)N[C@@H](CCC(=O)O)C(=O)N[C@@H](CC[S+](C)[O-])C(=O)N[C@@H](CCCNC(=N)N)C(=O)N[C@@H](CC(=O)O)C(=O)N[C@@H](CCCNC(=N)N)C(=O)N[C@@H](C)C(=O)N[C@@H](CCCNC(=N)N)C(=O)N[C@@H](C)C(=O)N[C@@H](Cc1c[nH]cn1)C(=O)N[C@H](C(=O)O)C(C)C)C(C)C (stereo partly shown) [G-HV21] (HELM PEPTIDE1{G.F.L.S.K.S.L.V.F.G.E.E.[CS(=O)CC[C@H](N[*:1])C(=O)[*:2]].R.D.R.A.R.A.H.V}$$$$V2.0)	significantly inhibit the cytokine release	does not affect the cytokine production	–	–	–	–	–	–	–
CC(C)C[C@H](NC(=O)[C@H](Cc1ccccc1)NC(=O)CN)C(=O)N[C@@H](CO)C(=O)N[C@@H](CCCCN)C(=O)N[C@@H](CO)C(=O)N[C@@H](CC(C)C)C(=O)N[C@H](C(=O)N[C@@H](Cc1ccccc1)C(=O)O)C(C)C [GF9] (H-GFLSKSLVF-OH)	–	–	at least 300 mg/kg	Non-Toxic	pass the blood-retinal barrier (BRB) and blood-brain barrier (BBB)	–	–	–	–
CC(C)C[C@H](NC(=O)[C@H](Cc1ccccc1)NC(=O)CN)C(=O)N[C@@H](CO)C(=O)N[C@@H](CCCCN)C(=O)N[C@@H](CO)C(=O)N[C@@H](CC(C)C)C(=O)N[C@H](C(=O)N[C@@H](Cc1ccccc1)C(=O)N[C@@H](Cc1c[nH]c2ccccc12)C(=O)N[C@@H](CCC(N)=O)C(=O)N[C@@H](CCC(=O)O)C(=O)N[C@@H](CCC(=O)O)C(=O)N[C@@H](CC[S+](C)[O-])C(=O)N[C@@H](CCC(=O)O)C(=O)N[C@@H](CC(C)C)C(=O)N[C@@H](Cc1ccc(O)cc1)C(=O)N[C@@H](CCCNC(=N)N)C(=O)N[C@@H](CCC(N)=O)C(=O)N[C@@H](CCCCN)C(=O)N[C@H](C(=O)O)C(C)C)C(C)C (stereo partly shown) [G-KV21] (HELM PEPTIDE1{G.F.L.S.K.S.L.V.F.W.Q.E.E.[CS(=O)CC[C@H](N[*:1])C(=O)[*:2]].E.L.Y.R.Q.K.V}$$$$V2.0)	significantly inhibit the cytokine release	–	–	–	–	self-inserts into the cell membrane and colocalizes with TREM-1	colocalization	significantly improves survival	sensitizes the tumor to chemotherapy
